SMILES strings stand for the structures.

One may read the IC50 as the midpoint of a concentration-inhibition curve.

For one assay, the target named is T1, human NAAA (Homo sapiens, UniProt Q02083).
T1 construct: made in house; host or cells: HEK293 cells, stably transfected; soluble fraction after freeze/thaw
T1 sequence (Q02083 29-359): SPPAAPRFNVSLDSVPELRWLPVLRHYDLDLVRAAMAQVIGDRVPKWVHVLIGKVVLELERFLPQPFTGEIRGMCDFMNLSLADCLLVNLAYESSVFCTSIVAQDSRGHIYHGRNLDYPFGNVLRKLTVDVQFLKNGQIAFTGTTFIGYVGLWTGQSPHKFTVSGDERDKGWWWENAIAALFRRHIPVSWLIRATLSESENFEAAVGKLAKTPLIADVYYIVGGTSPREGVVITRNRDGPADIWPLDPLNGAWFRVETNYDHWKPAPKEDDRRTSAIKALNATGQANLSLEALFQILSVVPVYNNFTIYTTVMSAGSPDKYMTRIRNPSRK
Nature of the assay: Fluorogenic h-NAAA assay. The following applies: for IC50: recombinant HEK-hNAAA preparation. The format is biochemical. As for the experimental part:
Hek293 cells stably transfected with the human NAAA coding sequence cloned from a human spleen cDNA library were used as enzyme source. Recombinant HEK-hNAAA pellets were resuspended in homogenizing buffer, and sonicated. Samples were centrifuged at 800×g for 15 min at 4° C. and the supernatants were ultracentrifuged at 12,000×g for 30 min at 4° C. The pellets were resuspended in PBS pH 7.4 on ice and subjected to a freeze/thaw cycle at −80° C. (two freeze/thaw cycles at −80° C. for Examples 34-37). The suspension was finally centrifuged at 105,000×g for 1 h at 4° C. Protein concentration was measured and samples stored at −80° C. until use.
The assay was run in Optiplate 96-wells black plates, in a total reaction volume of 200 μL. NAAA protein preparation (4.0 μg for Examples except 34-37, which were 20.0 μg) was pre-incubated for 10 min with various concentrations of test compounds or vehicle control (5% DMSO) in 100 mM citrate/phosphate buffer (pH 4.5) containing 3.0 mM DTT, 0.1% Triton X-100, 0.05% BSA, 150 mM NaCl. N-(4-methyl-2-oxo-chromen-7-yl)-hexadecanamide was used as a substrate (5.0 μM) and the reaction carried over for 30 min at 37° C. The samples were then read in a Perkin Elmer Envision plate reader using an excitation wavelength of 360 nm and emission 460 nm. IC50 values were calculated by non-linear regression analysis of log [concentration]/inhibition curves using GraphPad Prism 5 (GraphPad Software Inc., CA—USA) applying a standard slope curve fitting.

The subject of assay [1] is carrageenan-induced paw edema and heat hyperalgesia. Nature of the assay: Carrageenan-induced inflammation (paw edema, heat hyperalgesia). The format is in vivo. The settings on record: mice, oral administration (p.o.), 3-30 mg/kg, dose- and time-dependent. (In general: The carrageenan paw model is a standard test of acute inflammation.)
The target of a further assay is T2, r-NAAA (Rattus norvegicus, UniProt Q5KTC7).
T2 construct: Lysosomal NAAA protein preparation was obtained by homogenizing male Sprague-Dawley rat lungs; tissue Charles River; host or cells: male Sprague-Dawley rat lung, soluble lysosomal fraction
T2 sequence (Q5KTC7 34-362): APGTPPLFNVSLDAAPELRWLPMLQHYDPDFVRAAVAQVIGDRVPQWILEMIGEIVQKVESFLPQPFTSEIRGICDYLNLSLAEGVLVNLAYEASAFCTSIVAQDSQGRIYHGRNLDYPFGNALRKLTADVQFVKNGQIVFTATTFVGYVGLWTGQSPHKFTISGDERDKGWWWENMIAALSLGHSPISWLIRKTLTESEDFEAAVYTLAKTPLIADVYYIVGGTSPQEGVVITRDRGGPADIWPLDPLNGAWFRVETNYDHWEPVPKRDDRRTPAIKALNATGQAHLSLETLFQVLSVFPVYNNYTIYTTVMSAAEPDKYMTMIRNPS
As to the kind of experiment: UPLC/MS r-NAAA assay. The format is biochemical. As for the experimental part: Lysosomal NAAA protein preparation was obtained by homogenizing male Sprague-Dawley rat lungs (Charles River) in 20 mM Tris-HCl buffer pH 7.4 containing 0.32M sucrose. Samples were centrifuged at 800×g for 15 min at 4° C. Supernatants were centrifuged at 12,000×g for 30 min at 4° C. Pellets were then resuspended in PBS pH 7.4 and subjected to a freeze/thaw cycle at −80° C. The suspension was finally centrifuged at 105,000 g for 1 h at 4° C. The supernatant was used in enzymatic assays.
NAAA preparations were pre-incubated with various concentrations of test compounds or vehicle control in 100 mM NaH2PO4/Citrate buffer, 1% Triton-X, 3 mM DTT (pH 4.5) for 30 min at 37° C. Samples were incubated with heptadecenoylethanolamide (50 μM, Avanti Polar Lipids) at 37° C. for 30 min. The reaction was terminated by addition of cold methanol containing heptadecanoic acid (NuCheck Prep) as internal standard. Samples were analyzed by UPLC/MS (Acquity, Waters). Heptadecenoic and heptadecanoic acids were eluted on an Acquity UPLC BEH C18 column (50 mm length, 2.1 mm i.d., 1.7 μm pore size, Waters) isocratically at 0.5 mL/min for 1.5 min with a solvent mixture of 95% methanol and 5% H2O, both containing 0.25% Acetic Acid and 5.0 mM ammonium acetate. The column temperature was 40° C. Electrospray ionization was in the negative mode, capillary voltage was 0.5 kV, cone voltage was […], desolvation temperature was 500° C. N2 was used as drying gas at a flow rate of 1000 L/hour and a temperature of 500° C. The [M−H]^− ion was monitored in the selected-ion monitoring mode (m/z values: heptadecenoic acid 267.37, heptadecanoic acid 269.37). Calibration curves were generated using commercial heptadecenoic acid (NuCheck Prep) Inhibition of NAAA activity was calculated as reduction of heptadecenoic acid in the samples compared to vehicle controls. IC50 values were calculated by non-linear regression analysis of log [concentration]/inhibition curves using GraphPad Prism 5 (GraphPad Software Inc., CA—USA) applying a standard slope curve fitting.

Assay [2] addresses T3, Rat AC (r-AC), Acid Ceramidase (Rattus norvegicus, UniProt Q6P7S1).
T3 construct: V5 (C); His (C); made in house; host or cells: HEK293 cells transfected with pEF6-rAC-V5/His, selected with G418; soluble fraction after freeze/thaw
T3 sequence (Q6P7S1 21-394): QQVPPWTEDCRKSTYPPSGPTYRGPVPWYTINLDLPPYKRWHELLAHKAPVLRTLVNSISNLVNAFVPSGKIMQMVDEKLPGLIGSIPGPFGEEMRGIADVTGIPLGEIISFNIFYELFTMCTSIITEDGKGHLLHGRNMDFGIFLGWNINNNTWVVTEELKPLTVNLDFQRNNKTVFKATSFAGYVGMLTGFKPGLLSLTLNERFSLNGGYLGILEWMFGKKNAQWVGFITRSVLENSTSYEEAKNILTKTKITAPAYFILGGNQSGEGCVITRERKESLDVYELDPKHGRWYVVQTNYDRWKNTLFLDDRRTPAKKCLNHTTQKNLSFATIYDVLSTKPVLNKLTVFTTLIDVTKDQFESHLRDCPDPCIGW
As to the kind of experiment: Rat AC (r-AC) assay, UPLC/MS. The format is biochemical. The following applies: read-out: r-AC UPLC/MS assay % inhib. The procedure:
The selectivity of selected compounds versus Acid Ceramidase (AC) was determined.
Rat AC (r-AC) was cloned from a brain cDNA library using primers based on the sequence obtained from the National Center for Biotechnology Information (NCBI) database: 5′rAC (5′-GACCATGCTGGGCCGTAGT-3′) (SEQ ID NO:1) and 3′rAC (5′-CCAGCCTATACAAGGGTCT-3′) (SEQ ID NO:2). The PCR (High Fidelity PCR Master, Roche) product was subcloned into a pEF6-V5/His vector (Invitrogen) to construct a mammalian expression vector encoding V5/His-tagged rat AC. HEK293 cells were transfected with pEF6-rAC-V5/His using Super-Fect reagent (Qiagen) and screened with G418 (0.3 mg/mL). Cells were suspended in 20 mM Tris HCl (pH 7.5) containing 0.32M sucrose, sonicated and centrifuged at 800×g for 15 min at 4° C. The supernatants were centrifuged again at 12,000×g for 30 min at 4° C. The pellets were suspended in phosphate-buffered saline (PBS) and subjected to 2 freeze-thaw cycles at −80° C. The suspensions were centrifuged at 105,000×g for 1 hour at 4° C. The supernatants containing recombinant AC were kept at −80° C. until use. Protein concentration was measured using the bicinchoninic acid (BCA) assay (Pierce). Recombinant rat AC (50 μg) was preincubated with inhibitors (final DMSO concentration 1%) in assay buffer (100 mM sodium phosphate, 0.1% Nonidet P-40, 150 mM NaCl, 3 mM DTT, 100 mM sodium citrate, pH 4.5) for 30 min at 37° C. Reactions were started by the addition of 100 μM N-lauroyl ceramide (Nu-Chek Prep, Elysian, Minn.) and carried on for 30 min at 37° C. Reactions were stopped by addition of a mixture of chloroform/methanol (2:1, vol/vol) containing 1 nmol of heptadecanoic acid (HDA; NuChek Prep). The organic phases were collected, dried under N2, and analyzed by LC-MS in the negative-ion mode using […] (HDA) as internal standard (m/z=199 for lauric acid, m/z=269 for HDA). HDA was eluted on an XDB Eclipse C18 column isocratically at 2.2 mL/min for 1 min with a solvent mixture of 95% methanol and 5% water, both containing 0.25% acetic acid and 5 mM ammonium acetate. The column temperature was 50° C. Electrospray ionization (ESI) was in the negative mode, capillary voltage as 4 kV, and fragmentor voltage was 100 V. N2 was used as drying gas at a flow rate of 13 L/min and a temperature of 350° C. Nebulizer pressure was set at 60 psi. We monitored […] in the selected-ion monitoring (SIM) mode using HDA as internal standard. Calibration curves were generated using commercial lauric acid (Nu-Chek Prep; m/z=199).

Consider `CCCCC/C=C/CC(=O)N[C@H]1CNC1=O` [Example 5, (E)-N-[(3S)-2-Oxoazetidin-3-yl]-non-3-enamide], for which the results for the 50% inhibitory concentration (IC50) at human NAAA and on r-NAAA (rat lung lysosomal NAAA preparation) were 1340 nM and 2300 nM, respectively. In addition, in assay [1], the heat hyperalgesia entry was “markedly attenuated”. Also, the paw edema entry in assay [1] was “markedly attenuated”.
Consider `CCCCCCCCCC(=O)N[C@H]1CNC1=O` [Example 23, N-[(3S)-2-Oxoazetidin-3-yl]-decanamide], for which the half-maximal inhibitory concentration (IC50) on human NAAA worked out at 86 nM. The inhibition at 1 µM in assay [2] is 70%.
The corresponding values for `O=C(CCCCCCC1CCCCC1)N[C@H]1CNC1=O` [Example 30, 7-Cyclohexyl-N-[(3S)-2-oxoazetidin-3-yl]-heptanamide] are 210 nM and 45%.
For the compound `CCCCCCCCC(=O)N(C)[C@H]1CNC1=O` [Example 27, N-Methyl-N-[(3S)-2-Oxoazetidin-3-yl]-nonanamide], at human NAAA (@ 2.5 μM, read-out: h-NAAA Fluorogenic assay % inhib.), the inhibition at 2.5 µM was 20%. Also, the inhibition at 3 µM at r-NAAA (@ 3 μM, read-out: r-NAAA UPLC/MS assay % inhib.) was determined as 40%.

The values are drawn from patent US9908848B2, “Amide derivatives of lactam based N-acylethanolamine acid amidase (NAAA) inhibitors” (The Regents of the University of California, priority 2013, dated 2018).
